For series [1], the system named is human washed platelets. The experiment in a line: Platelet aggregation assay (Chrono-Log aggregometer). Type of series: cell-based. The note with it: for IC50: Homo sapiens, Platelet, 10 min, 10 min incubation at 37°C. On the procedure: (§1) Blood was collected from a median cubital vein using a 3.8% sodium citrate anticoagulation tube with a 1:9 dilution ratio. The platelets were washed using a previously described method with slight modification ([Babur et al., 2020]; [Uphaus et al., 2022]). The blood was centrifuged at room temperature at 300 × g for 10 min to separate platelet-rich plasma (PRP). PRP was added to 50 ng/mL of PGE1 and 5 mM EDTA, centrifuged at 2,000 × g for 2 min at room temperature, and the platelet precipitate was obtained after discarding the supernatant. The modified HEPES-Tyrode’s buffer (20 mM 4-(2-Hydroxyethyl)-1-piperazine ethane sulfonic acid [HEPES], pH 7.3, 129 mM NaCl, 2.9 mM KCl, 12 mM NaHCO3, 0.34 mM Na2HPO4, 20 mM HEPES, 5 mM D-Glucose, 1 mM MgCl2) was used to resuspend the platelets, added with 50 ng/mL PGE1 and 5 mM EDTA, and the platelets were washed by centrifugation at 2,000 ×g for 2 min at room temperature. The washed platelets (WP) were resuspended using modified HEPES-Tyrode’s buffer, and the platelet count was adjusted to 150–200 × 10^9/L.
(§2) Platelet aggregation and ATP release were detected using the Chrono-Log platelet aggregation instrument (Chrono-Log Corp., Havertown, Pennsylvania, United States), as previously reported ([Babur et al., 2020]). […] In addition, 1 mM CaCl2 and different platelet activators (ADP, collagen, and thrombin; Chrono-Log Corp., Havertown, Pennsylvania, United States; U46619, from Sigma, St. Louis, MO, United States; convulxin, sc-202554 from Santa Cruz Biotechnology, Santa Cruz, CA, United States) were added to each group before the start of the aggregation assay. For the ATP release experiments, the platelets were incubated with 50 ng/mL luciferin and D-luciferase (Cat No. 395; Chrono-Log Corp.) for 2 min before the addition of activators. The platelet aggregation and ATP release curves were traced during experiments.

The test system of series [2] is human washed platelets. Description: Platelet ATP release assay (luciferin/luciferase). Type of series: cell-based. The conditions noted are these: for IC50: Homo sapiens, Platelet. On the procedure:
as §1, §2

The test system of series [3] is human washed platelets. Description: Platelet ROS release assay (DCFH-DA). It counts as cell-based. The conditions noted are these: for IC50: Homo sapiens, Platelet; for effect on platelet ROS release: luteolin 25 μM, BAY61-3606 63 nM. Here is the method:
The assay was performed as previously reported with minor modifications ([Arthur et al., 2012]; [Ye et al., 2020]). Briefly, WPs (500 × 10^9/L) were labeled with 5 μM Fluo-3AM (Cat No. IF0150; Solarbio) or 10 μM DCFH-DA (Cat No. D6883; Sigma, St. Louis, MO, United States) at 37°C for 30 min protected from light. […] In addition, 1 mM CaCl2 and collagen or convulxin were added to start the reaction. […] A ROS probe via a fluorescent enzyme marker was added. O2 ^− and H2O2 were measured using 2 μM Amplex Red (Cat No. ST010; Beyotime Institute of Biotechnology, Shanghai, China) or 2 μM Dihydroethidium (DHE, Cat No. S0063; Beyotime Institute of Biotechnology, Shanghai, China). O2 ^− and H2O2 were analyzed using a Fluoroskan Ascent fluorometer (Thermo Fisher, Waltham, Massachusetts, United States).

In another series the target is T1, rhGPVI (Homo sapiens, UniProt Q9HCN6).
T1 construct: rhGPVI was expressed and purified according to the method reported in the literature; made in house
T1 sequence (Q9HCN6 21-203 limits assumed): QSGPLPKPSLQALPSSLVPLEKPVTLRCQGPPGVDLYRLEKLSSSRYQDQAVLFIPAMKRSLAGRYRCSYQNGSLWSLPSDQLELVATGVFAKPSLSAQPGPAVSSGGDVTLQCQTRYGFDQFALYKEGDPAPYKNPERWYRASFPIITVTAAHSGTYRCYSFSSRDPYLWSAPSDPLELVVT
Description: Solid phase binding assay (rhGPVI binding to immobilized collagen). The conditions noted are these: rhGPVI 30 nM; collagen 5 μg/mL coated; read-out: IC50, inhibition of binding of rhGPVI to collagen. On the procedure: rhGPVI was expressed and purified according to the method reported in the literature ([Horii et al., 2006]). rhGPVI was cross-linked with 10 μg/mL of cross-linking antibody His Tag Horseradish Peroxidase-conjugated Antibody (Cat. MAB050H; R&D Systems, Minneapolis, MN, United States). Solid phase assays were performed based on previously described procedures ([Billiald et al., 2023]). Collagen (5 μg/mL prepared in PBS) was used to coat 96-well plates overnight at 4°C. Non-specific sites were closed by Superblock (Cat. 37580; Thermo Fisher Scientific, Waltham, MA, United States). […] 1-StepTM Ultra TMB-ELISA (Cat. 34022; Thermo Fisher Scientific, Waltham, MA, United States) was developed, and the reaction was stopped with a 2 M sulphuric acid solution. Absorbance values were read at 450 nm. At least three washes were performed with PBS between each of the above steps. Each spot was measured three times.

Another series is described as follows: Tail bleeding in mice. It counts as in vivo, C57BL/6 mice. The conditions noted are these: luteolin 35 μM/kg or aspirin i.p., 30 min after injection; vs DMSO. On the procedure:
The tail break hemorrhage experiment in mice was performed as previously reported, with slight modifications ([Liu et al., 2012]). […] Before the experiment, the mouse tails were immersed in saline for 3 min at 37°C. Then, 30 min after injection, the tails were quickly cut off using a surgical knife blade and placed in saline at 37°C. The cutting site was 5 mm from the end of the tail tip. The bleeding time of the broken tails was observed and recorded.

On the set-up of series [4]: method as in Cheurfa et al., 2019. The conditions noted are these: diet-induced obese mice; 200 mg/kg/d; ref Cheurfa et al., 2019; cited from earlier work.

Structures are written as SMILES.

For the molecule `O=c1cc(-c2ccc(O)c(O)c2)oc2cc(O)cc(O)c12` [Luteolin], the “effect on platelet aggregation” value is “no significant effect” with human washed platelets [1] (25 μM luteolin, ADP (5 μM)-induced); “no significant effect” with human washed platelets [1] (25 μM luteolin, U46619 (3 μM)-induced); “no significant effect” in the series on human washed platelets [1] (25 μM luteolin, thrombin (0.05 U/mL)-induced); “significantly inhibited” in the series with human washed platelets [1] (100 μM luteolin, U46619-induced). Moreover, the IC50 with human washed platelets [1] (read-out: IC50, inhibition of platelet aggregation, convulxin (5 ng/mL)-induced) amounted to 8.66 µM; in the series with human washed platelets [1] (collagen (10 μg/mL)-induced, read-out: IC50, inhibition of platelet aggregation), 4.81 µM; with human washed platelets [2] (read-out: IC50, inhibition of ATP release, convulxin-induced) it was 2.37 µM; in the series on human washed platelets [2] (collagen-induced, read-out: IC50, inhibition of ATP release), 2.67 µM; with human washed platelets [3] (read-out: IC50, inhibition of ROS release, convulxin (5 ng/mL)-induced), 3.51 µM; with human washed platelets [3] (collagen (10 μg/mL)-induced, read-out: IC50, inhibition of ROS release), 2.06 µM. The IC50 on rhGPVI came to 5.49 µM. Further, the “effect on platelet ATP release” value in the series with human washed platelets [2] (convulxin- and collagen-induced, concentration-dependent) was “significantly inhibited”. Moreover, the figures for the “effect on platelet ROS release” value in the series with human washed platelets [3] (collagen (10 μg/mL)-induced) and in the series on human washed platelets [3] (convulxin (5 ng/mL)-induced) were “decreasing levels” and “decreased”, respectively. Further, the tail bleeding time result in the series “Tail bleeding in mice” was “no significant prolonging effect”. Further, the low-density lipoprotein content entry in series [4] is recorded as “significantly reduced”.

The record behind these values is paper PMC10644720 (Frontiers in Pharmacology, 2023).
